Laboratory results published in publication doi:10.1101/504811v1 (biorxiv, 2018).

Target: T1, MPH-wt (Pseudomonas sp. WBC-3, UniProt Q841S6)
T1 sequence (Q841S6 36-331): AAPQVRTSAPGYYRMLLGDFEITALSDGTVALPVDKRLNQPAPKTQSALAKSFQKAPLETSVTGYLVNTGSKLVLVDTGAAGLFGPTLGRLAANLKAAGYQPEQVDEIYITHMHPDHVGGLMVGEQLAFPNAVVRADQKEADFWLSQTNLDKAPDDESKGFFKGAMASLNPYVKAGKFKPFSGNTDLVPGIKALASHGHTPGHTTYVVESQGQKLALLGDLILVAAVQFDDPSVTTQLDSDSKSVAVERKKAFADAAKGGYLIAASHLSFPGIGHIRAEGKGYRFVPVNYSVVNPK
Experiment: hydrolysis kinetics, purified enzyme
Assay type: biochemical

O=C1CCc2ccccc2O1 [dihydrocoumarin]
KM: only moderate DHCH activity
